Experimental data taken from patent US20250109127A1, “METHODS OF USE OF PHENOXYPROPYLAMINE COMPOUNDS TO TREAT DEPRESSION” (Minerva Neurosciences, Inc., priority 2013, published 2025).
Values joined by “and” are separate entries in the source; they are usually repeats but may differ in a detail not shown here. Equal entries are not always repeated. Structures can show the parent of a compound that is named as a salt.

Test system: DOPAC release in the rat prefrontal cortex
Assay: Microdialysis: DOPAC release in prefrontal cortex after I.P. administration
Assay type: in vivo
Conditions: for DOPAC (% of respective basal), individual animal: 0.1 mg/kg I.P., c2-c9 = R#13,14,20,19,25,26,31,32; for DOPAC (% of respective basal), individual animal / DOPAC release, individual animals: hydrochloride; for DOPAC release, MEAN / DOPAC release, individual animals: 3 mg/kg IP; for DOPAC release, MEAN: n = 8; for DOPAC release, individual animals: per animal R#15,16,21,22,27,28,09,10
Experimental: The aim of the study was to evaluate, using microdialysis, the effects of an intraperitoneal (I.P.) administration in rats of three different doses of SON-117 on dopamine and its metabolites, serotonin and its metabolite (5-HIAA), and norepinephrine levels in prefrontal cortex.
Thirty-two adult male Wistar rats were used for the whole study (4 groups of eight animals planned for the study, Table 1).
Surgery was performed on rats weighing about 300 g at the beginning of the experiments. Rats were anaesthetized with Ketamine (50 mg/kg) & Xylazine (15 mg/kg) by intramuscular administration. The animals were placed in a stereotaxic apparatus in the flat-skull position at a constant setting of −3.3 mm between ear bars and the incisor bar. The animals were treated with a local anesthesic (xylocaine 1%, Astra Zeneca) and an analgesic (Temgesic, from Schering Plough, 0.05 mg/kg, s.c.). A rostrocaudal midline incision was made with a lancet to expose the dorsal skull surface. The “stereotaxic zero” was defined by the Bregma in accordance with Paxinos and Watson's atlas (1986). A hole was drilled in the skull with a drill and the meninges were pierced with a sterile needle to implant a CMA12 guide cannula which later received the dialysis probe.
Coordinates used for implanting guide cannula in prefrontal cortex from Bregma were anteroposterior 3.7 mm, mediolateral 0.8 mm, and dorsoventral −2 mm (top of the probe was at −5 mm). The guide cannula was fixed to the skull with two stainless steel screws (1.88 mm outside diameter) anchored. An application of dental cement was added. A plastic collar allowed each animal to be tethered to a Swivel assembly of the CMA 120 awake animal system. Following surgery, rats were kept in individual cages and allowed to recover for a minimum of 3-5 days before the experimentation. The rats were handled and put in plastic bowl for 10 min at least every day to habituate the animals to their new environment for the dialysis. An I.P. administration with saline was also performed every day.
Dialysis probes (CMA12/3 mm, membrane, 20 kD cut-off, Carnegie Medicine, Stockholm, Sweden), were carefully washed before inserting into the guide cannula. The wash was performed with the artificial cerebrospinal fluid (aCSF) medium (NaCl 147 mM, KCl 2.7 mM, CaCl2 1.2 mM, MgCl2 0.85 mM) at room temperature. The dialysis system was then equilibrated at 20° C. at a perfusion rate of 1 μl/min with a Carnegie pump (CMA100). All catheters (FEP tubing, internal volume of 1.2 μl/10 cm, and tubing adaptors) used for microdialysis were treated in the same conditions.
The probes duly prepared were inserted into the guide cannula and the CMA120 Swivel assembly secured to the animal using a plastic collar. Flow through the dialysis probe with aCSF was maintained at a rate of 1 μl/min during the whole experimentation. The first four fractions (corresponding to 2 hours) were discarded to avoid the effects of parenchymal disturbance and to ensure that an approximate steady-state level was reached. Fractions were then collected over a period of 8.5 h during which time the animals remained quiet. The dialysates were automatically collected with an autosampler (microfraction collector CMA 140, Carnegie Medicin) and stored at −80° C. until analysis. […] Perfusion was then maintained for 7 hours with aCSF. The dialysates (30 μl) were collected into 300 μl vials, transferred into dry ice and then kept frozen (−80° C.) until analysis. Frozen samples were shipped to a partner for analysis. At the end of the microdialysis study, a PBS with colored ink was perfused through the probe in order to visualize the dialyzed area.
Catecholamine assay: Concentrations of dopamine, DOPAC, HVA, 5-HIAA, 5-HT, and norepinephrin were determined for each sample by HPLC coupled with electrochemical detection.

## Cc1nnc(-c2cc3c(OC[C@@H](O)CN4CCC(c5ccc(Cl)c(Cl)c5)CC4)cccc3o2)o1 [SON-117, (S)-1-(4-(3,4-dichlorophenyl)piperidino)-3-(2-(5-methyl-1,3,4-oxadiazol-2-yl)benzo(b)furan-4-yloxy)-2-propanol hydrochloride]
T30-T1 h
  DOPAC (% of respective basal), individual animal: 90.11 % of respective basal and 105.88 % of respective basal and 110.45 % of respective basal and 113.21 % of respective basal and 95.59 % of respective basal and 110.39 % of respective basal and 128.2 % of respective basal and 82.35 % of respective basal
  DOPAC release, MEAN: 90.03 % of respective basal
  DOPAC release, individual animals: 101.17 % of respective basal and 98.27 % of respective basal and 70.16 % of respective basal and 93.38 % of respective basal and 83.10 % of respective basal and 96.90 % of respective basal and 90.68 % of respective basal and 86.57 % of respective basal
T1 h 30-T2 h
  DOPAC (% of respective basal), individual animal: 101.64 % of respective basal and 109.71 % of respective basal and 83.87 % of respective basal and 449.73 % of respective basal and 128.96 % of respective basal and 72.88 % of respective basal and 153.26 % of respective basal and 56.49 % of respective basal
  DOPAC release, MEAN: 109.73 % of respective basal
  DOPAC release, individual animals: 148.73 % of respective basal and 196.92 % of respective basal and 78.99 % of respective basal and 114.35 % of respective basal and 65.05 % of respective basal and 98.86 % of respective basal and 85.04 % of respective basal and 87.02 % of respective basal
T1 h-T1 h 30
  DOPAC (% of respective basal), individual animal: 79.47 % of respective basal and 158.61 % of respective basal and 92.14 % of respective basal and 126.98 % of respective basal and 119.92 % of respective basal and 119.37 % of respective basal and 135.5 % of respective basal and 66.42 % of respective basal
  DOPAC release, MEAN: 107.74 % of respective basal
  DOPAC release, individual animals: 183.03 % of respective basal and 117.43 % of respective basal and 106.09 % of respective basal and 101.67 % of respective basal and 88.00 % of respective basal and 90.78 % of respective basal and 85.51 % of respective basal and 89.44 % of respective basal
T2 h 30-T3 h
  DOPAC (% of respective basal), individual animal: 60.75 % of respective basal and 112.82 % of respective basal and 69.17 % of respective basal and 79.31 % of respective basal and 152.5 % of respective basal and 113.62 % of respective basal and 142.16 % of respective basal and 23.28 % of respective basal
  DOPAC release, MEAN: 92.73 % of respective basal
  DOPAC release, individual animals: 122.00 % of respective basal and 99.60 % of respective basal and 70.87 % of respective basal and 93.90 % of respective basal and 65.07 % of respective basal and 108.76 % of respective basal and 94.51 % of respective basal and 87.10 % of respective basal
T2 h-T2 h 30
  DOPAC (% of respective basal), individual animal: 176.59 % of respective basal and 43.90 % of respective basal and 80.18 % of respective basal and 123.61 % of respective basal and 132.53 % of respective basal and 78.83 % of respective basal and 142.03 % of respective basal and 39.56 % of respective basal
  DOPAC release, MEAN: 95.46 % of respective basal
  DOPAC release, individual animals: 111.98 % of respective basal and 121.35 % of respective basal and 63.44 % of respective basal and 89.04 % of respective basal and 75.53 % of respective basal and 92.91 % of respective basal and 122.88 % of respective basal and 86.52 % of respective basal
T3 h 30-T4 h
  DOPAC (% of respective basal), individual animal: 53.09 % of respective basal and 116.09 % of respective basal and 68.59 % of respective basal and 73.49 % of respective basal and 180.72 % of respective basal and 107.13 % of respective basal and 128.91 % of respective basal and 40.67 % of respective basal
  DOPAC release, MEAN: 94.20 % of respective basal
  DOPAC release, individual animals: 111.27 % of respective basal and 111.84 % of respective basal and 80.10 % of respective basal and 101.37 % of respective basal and 69.94 % of respective basal and 101.03 % of respective basal and 82.44 % of respective basal and 95.58 % of respective basal
T3 h-T3 h 30
  DOPAC (% of respective basal), individual animal: 80.45 % of respective basal and 87.7 % of respective basal and 65.69 % of respective basal and 75.20 % of respective basal and 134.32 % of respective basal and 93.13 % of respective basal and 140.15 % of respective basal and 50.88 % of respective basal
  DOPAC release, MEAN: 102.63 % of respective basal
  DOPAC release, individual animals: 114.26 % of respective basal and 115.76 % of respective basal and 98.98 % of respective basal and 103.32 % of respective basal and 65.78 % of respective basal and 96.52 % of respective basal and 80.53 % of respective basal and 145.86 % of respective basal
T4 h 30-T5 h
  DOPAC (% of respective basal), individual animal: 304.57 % of respective basal and 95.87 % of respective basal and 47.53 % of respective basal and 20.13 % of respective basal and 163.90 % of respective basal and 118.96 % of respective basal and 157.11 % of respective basal and 54.52 % of respective basal
  DOPAC release, MEAN: 90.86 % of respective basal
  DOPAC release, individual animals: 99.05 % of respective basal and 111.45 % of respective basal and 86.88 % of respective basal and 84.18 % of respective basal and 65.99 % of respective basal and 114.07 % of respective basal and 88.90 % of respective basal and 76.33 % of respective basal
T4 h-T4 h 30
  DOPAC (% of respective basal), individual animal: 345.4 % of respective basal and 109.04 % of respective basal and 79.96 % of respective basal and 110.35 % of respective basal and 164.47 % of respective basal and 110.81 % of respective basal and 148.54 % of respective basal and 71.60 % of respective basal
  DOPAC release, MEAN: 97.50 % of respective basal
  DOPAC release, individual animals: 114.70 % of respective basal and 111.85 % of respective basal and 76.78 % of respective basal and 121.97 % of respective basal and 69.65 % of respective basal and 96.91 % of respective basal and 88.65 % of respective basal and 99.52 % of respective basal
T5 h 30-T6 h
  DOPAC (% of respective basal), individual animal: 316.35 % of respective basal and 107.67 % of respective basal and 58.65 % of respective basal and 83.02 % of respective basal and 133.93 % of respective basal and 99.81 % of respective basal and 135.88 % of respective basal and 46.79 % of respective basal
  DOPAC release, MEAN: 93.52 % of respective basal
  DOPAC release, individual animals: 100.08 % of respective basal and 108.82 % of respective basal and 106.21 % of respective basal and 79.12 % of respective basal and 64.79 % of respective basal and 94.19 % of respective basal and 96.33 % of respective basal and 96.49 % of respective basal
T5 h-T5 h 30
  DOPAC (% of respective basal), individual animal: 342.56 % of respective basal and 121.60 % of respective basal and 61.68 % of respective basal and 79.4 % of respective basal and 139.09 % of respective basal and 96.46 % of respective basal and 144.84 % of respective basal and 50.64 % of respective basal
  DOPAC release, MEAN: 105.66 % of respective basal
  DOPAC release, individual animals: 96.11 % of respective basal and 118.05 % of respective basal and 106.17 % of respective basal and 90.70 % of respective basal and 68.08 % of respective basal and 136.44 % of respective basal and 128.39 % of respective basal and 101.33 % of respective basal
T6 h 30-T7 h
  DOPAC (% of respective basal), individual animal: 344.74 % of respective basal and 120.8 % of respective basal and 139.44 % of respective basal and 80.52 % of respective basal
  DOPAC release, MEAN: 101.08 % of respective basal
  DOPAC release, individual animals: 100.91 % of respective basal and 128.07 % of respective basal and 103.29 % of respective basal and 98.33 % of respective basal and 67.98 % of respective basal
T6 h-T6 h 30
  DOPAC (% of respective basal), individual animal: 362.18 % of respective basal and 142.01 % of respective basal and 23.55 % of respective basal and 82.92 % of respective basal and 136.09 % of respective basal and 101.05 % of respective basal and 125.76 % of respective basal and 48.95 % of respective basal
  DOPAC release, MEAN: 97.93 % of respective basal
  DOPAC release, individual animals: 89.69 % of respective basal and 125.97 % of respective basal and 108.08 % of respective basal and 99.61 % of respective basal and 70.30 % of respective basal and 104.34 % of respective basal and 87.50 % of respective basal
T0-T30 min
  DOPAC release, MEAN: 87.96 % of respective basal
T-30 min-T0 (before administration)
  DOPAC release, MEAN: 94.88 % of respective basal
